Laboratory results as given in patent US20240166770A1, “COMPOSITIONS AND METHODS FOR INHIBITION OF CELL-PENETRATING ANTIBODIES” (Yale University, priority 2019, published 2024).
Like-named read-outs stand apart in the source and are kept apart here.

Columns and labels:
hENT1 = biological target: T1, hENT1 (Homo sapiens, UniProt Q99808); settings: cited from earlier work
T1 sequence (Q99808 1-456): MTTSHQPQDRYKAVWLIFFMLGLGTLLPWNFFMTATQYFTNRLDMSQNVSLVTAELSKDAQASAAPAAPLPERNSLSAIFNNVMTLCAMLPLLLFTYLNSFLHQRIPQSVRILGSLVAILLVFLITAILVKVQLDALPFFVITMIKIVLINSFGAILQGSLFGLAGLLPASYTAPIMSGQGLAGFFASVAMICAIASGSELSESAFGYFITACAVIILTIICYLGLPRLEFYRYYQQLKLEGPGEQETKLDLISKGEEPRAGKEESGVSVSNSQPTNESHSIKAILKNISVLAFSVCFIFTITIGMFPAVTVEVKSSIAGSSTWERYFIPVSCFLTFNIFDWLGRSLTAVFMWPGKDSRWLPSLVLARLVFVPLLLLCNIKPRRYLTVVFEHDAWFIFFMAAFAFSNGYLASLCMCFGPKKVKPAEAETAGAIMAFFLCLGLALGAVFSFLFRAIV

hENT4 [1] = biological target: T2, hENT4 (Homo sapiens, UniProt Q7RTT9); settings: cited from earlier work
T2 sequence (Q7RTT9 1-530): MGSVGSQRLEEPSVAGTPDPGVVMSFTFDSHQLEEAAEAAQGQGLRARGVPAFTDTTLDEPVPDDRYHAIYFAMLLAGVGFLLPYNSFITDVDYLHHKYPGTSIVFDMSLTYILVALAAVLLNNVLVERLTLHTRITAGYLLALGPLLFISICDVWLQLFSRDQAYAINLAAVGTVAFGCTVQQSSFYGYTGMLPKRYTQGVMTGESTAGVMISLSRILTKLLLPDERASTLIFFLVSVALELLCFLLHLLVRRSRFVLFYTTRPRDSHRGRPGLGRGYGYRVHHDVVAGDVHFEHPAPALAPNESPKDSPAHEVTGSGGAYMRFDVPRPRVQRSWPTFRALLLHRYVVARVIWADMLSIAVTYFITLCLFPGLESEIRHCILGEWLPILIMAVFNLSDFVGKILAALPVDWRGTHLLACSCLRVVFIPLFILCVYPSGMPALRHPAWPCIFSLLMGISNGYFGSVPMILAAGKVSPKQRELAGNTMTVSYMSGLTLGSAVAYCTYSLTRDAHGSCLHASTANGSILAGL

ENT2 [2] = biological target: T3, ENT2 (Homo sapiens, UniProt Q14542); settings: cited from earlier work; for Ki: Visser et al. 2002
T3 sequence (Q14542 1-456): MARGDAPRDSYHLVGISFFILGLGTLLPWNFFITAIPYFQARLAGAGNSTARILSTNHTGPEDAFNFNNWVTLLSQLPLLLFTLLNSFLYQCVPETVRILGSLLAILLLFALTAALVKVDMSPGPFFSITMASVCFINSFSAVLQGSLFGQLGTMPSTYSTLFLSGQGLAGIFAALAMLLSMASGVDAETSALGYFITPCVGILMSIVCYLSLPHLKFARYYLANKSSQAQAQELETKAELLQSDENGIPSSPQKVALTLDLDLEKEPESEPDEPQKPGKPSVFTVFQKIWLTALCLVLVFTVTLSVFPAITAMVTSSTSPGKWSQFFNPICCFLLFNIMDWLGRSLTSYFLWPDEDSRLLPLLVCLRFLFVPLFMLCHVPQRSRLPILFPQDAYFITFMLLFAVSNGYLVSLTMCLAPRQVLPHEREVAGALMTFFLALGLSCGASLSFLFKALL

hENT4 [3] = biological target: T2, hENT4; settings: cited from earlier work; remark: listed apart in the source
ENT2 [4] = biological target: T3, ENT2; settings: cited from earlier work
ENT2 [5] = biological target: T3, ENT2; settings: ENT2-dependent transduction; cited from earlier work
[6] = test system: TNBC brain metastases (231-BR cells); type: in vivo; settings: 20 mg/kg tail vein 3x/week for 4 weeks
Protocol: TNBC brain metastases were generated in mice by intracardiac injection of luciferase-expressing 231-BR cells. Mice were treated with tail vein injection of control (PBS) or h3E10 di-scFv (20 mg/kg) 3×/week for 4 weeks, and brain metastases were tracked by IVIS.

[7] = test system: hCMEC/D3 Transwell filter BBB model; test: Transwell filter model of the human BBB (hCMEC/D3 and normal human astrocytes); type: in vitro ADME; settings: basolateral chamber one hour after addition to apical chamber, western blot
[8] = Table 3, free hydrogen on the nitrogen of 4- and 8-position substituents
[9] = Table 4, modification at hydroxyl groups of dipyridamole
[10] = Table 1, different ring systems at the 4- and 8-positions
[11] = Table 2, opening chain analogues

CCC(C)(C)Nc1nc(N(CCO)CCO)nc2c(NC(C)(C)CC)nc(N(CCO)CCO)nc12 [compound 58]
IC50 (hENT1; [8]): 78.9 nM
IC50 (hENT4 [1]; [8]): 818 nM

COc1cc(C(=O)OCCCN2CCCN(CCCOC(=O)c3cc(OC)c(OC)c(OC)c3)CC2)cc(OC)c1OC [dilazep]
Ki (ENT2 [2]): 134 µM

CCOCCN(CCOCC)c1nc(N2CCCCC2)c2nc(N(CCOCC)CCOCC)nc(N3CCCCC3)c2n1 [compound 77]
IC50 (hENT1; [9]): 768 nM
IC50 (hENT4 [1]; [9]): 29900 nM

C1CCN(c2nc(N3CCOCC3)nc3c(N4CCCCC4)nc(N4CCOCC4)nc23)CC1 [compound 73]
IC50 (hENT1; [9]): 1640 nM

OCCN(CCO)c1nc(N2CC3CC4CC(C3)CC2C4)c2nc(N(CCO)CCO)nc(N3CC4CC5CC(C4)CC3C5)c2n1 [compound 19]
IC50 (hENT1; [10]): 393 nM
IC50 (hENT4 [1]; [10]): 200 nM

OCCN(CCO)c1nc(N2CCCCC2)c2nc(N(CCO)CCO)nc(N3CCCCC3)c2n1 [Dipyridamole, 2,6-bis-(diethanolamino)-4,8-di-piperidino-pyrimidopyrimidine]
Ki (ENT2 [2]): 6.2 µM
inhibition of hENT4 (in words) (hENT4 [3]): only weakly inhibits
inhibition of hENT4 (in words) (hENT4 [3]; listed as dipyridamole): moderate inhibitors
IC50 (hENT4 [1]; [10]): 2800 nM
IC50 (ENT2 [4]; [10]): 308 nM

CCNc1nc(N(CCO)CCO)nc2c(NCC)nc(N(CCO)CCO)nc12 [compound 42]
IC50 (hENT1; [8]): 768 nM

OCCNc1nc(NC2CCC2)c2nc(NCCO)nc(NC3CCC3)c2n1 [compound 63]
IC50 (hENT1; [8]): 1860 nM
IC50 (ENT2 [4]; [8]): 7750 nM

CC(C)(C)OC(=O)N1CCN(c2nc(N(CCO)CCO)nc3c(N4CCN(C(=O)OC(C)(C)C)CC4)nc(N(CCO)CCO)nc23)CC1 [compound 7]
IC50 (hENT1; [10]): 580 nM
IC50 (ENT2 [4]; [10]): 2230 nM

CC(C)OCCN(CCO)c1nc(N2CCCCC2)c2nc(N(CCO)CCOC(C)C)nc(N3CCCCC3)c2n1 [compound 79]
IC50 (hENT1; [9]): 67.5 nM
IC50 (ENT2 [4]; [9]): 175 nM

CC(C)CN(CC(C)C)c1nc(N(CCO)CCO)nc2c(N(CC(C)C)CC(C)C)nc(N(CCO)CCO)nc12 [compound 29]
IC50 (hENT1; [11]): 2630 nM
IC50 (hENT4 [1]; [11]): 1710 nM
IC50 (ENT2 [4]; [11]): 1960 nM

OCCNc1nc(N2CC3CC4CC(C3)CC2C4)c2nc(NCCO)nc(N3CC4CC5CC(C4)CC3C5)c2n1 [compound 20]
IC50 (hENT1; [10]): 1430 nM
IC50 (hENT4 [1]; [10]): 602 nM

CC(C)CNc1nc(N(CCO)CCO)nc2c(NCC(C)C)nc(N(CCO)CCO)nc12 [compound 50]
IC50 (hENT1; [8]): 126 nM
IC50 (hENT4 [1]; [8]): 3060 nM
IC50 (ENT2 [4]; [8]): 1490 nM

OCCN(CCO)c1nc(Nc2ccccc2)c2nc(N(CCO)CCO)nc(Nc3ccccc3)c2n1 [compound 68]
IC50 (hENT1; [8]): 1120 nM

COCCN(CCOC)c1nc(N(CCO)CCO)nc2c(N(CCOC)CCOC)nc(N(CCO)CCO)nc12 [compound 35]
IC50 (hENT1; [11]): 538 nM
IC50 (hENT4 [1]; [11]): 104000 nM
IC50 (ENT2 [4]; [11]): 2090 nM

O=COCCN(CCOC=O)c1nc(N2CCCCC2)c2nc(N(CCOC=O)CCOC=O)nc(N3CCCCC3)c2n1 [compound 74]
IC50 (hENT1; [9]): 69.1 nM
IC50 (ENT2 [4]; [9]): 532 nM

CCCN(CCC)c1nc(N(CCO)CCO)nc2c(N(CCC)CCC)nc(N(CCO)CCO)nc12 [compound 25]
IC50 (hENT1; [11]): 197 nM
IC50 (hENT4 [1]; [11]): 234 nM
IC50 (ENT2 [4]; [11]): 3830 nM

CNc1nc(N(CCO)CCO)nc2c(NC)nc(N(CCO)CCO)nc12 [compound 40]
IC50 (hENT1; [8]): 8460 nM

O=[N+]([O-])c1ccc(CSc2ncnc3c2ncn3[C@@H]2O[C@H](CO)[C@@H](O)[C@H]2O)cc1 [NBMPR]
IC50 (ENT2 [2]; Ward et al. 2000, SenGupta et al. 2002): 2800 nM
inhibition of hENT4 (in words) (hENT4 [3]): moderate inhibitors
inhibition of intranuclear transduction of mouse 3E10 Fv (ENT2 [5]): inhibited
IC50 (hENT4 [1]; [10]): 2330 nM
IC50 (ENT2 [4]; [10]): 1350 nM

B1: h3E10 di-scFv: modified, humanized 3E10 lupus autoantibody di-scFv, SEQ ID NO:70, Variant 13 (protein)
scFv: DIQMTQSPSSLSASLGDRATITCRASKTVSTSSYSYMHWYQQKPGQPPKLLIKYASYLESGVPSRFSGSGSGTDFTLTISSLQPEDAATYYCQHSREFPWTFGGGTKVEIKRADAAPGGGGSGGGGSGGGGSEVQLVESGGGLVQPGGSLRLSCAASGFTFSNYGMHWVRQAPGKGLEWVSYISSGSSTIYYADSVKGRFTISRDNAKNSLYLQMNSLRAEDTAVYYCARRGLLLDYWGQGTTVTVSSASTKGPSVFPLAPLESSGSDIQMTQSPSSLSASLGDRATITCRASKTVSTSSYSYMHWYQQKPGQPPKLLIKYASYLESGVPSRFSGSGSGTDFTLTISSLQPEDAATYYCQHSREFPWTFGGGTKVEIKRADAAPGGGGSGGGGSGGGGSEVQLVESGGGLVQPGGSLRLSCAASGFTFSNYGMHWVRQAPGKGLEWVSYISSGSSTIYYADSVKGRFTISRDNAKNSLYLQMNSLRAEDTAVYYCARRGLLLDYWGQGTTVTVSS
growth of brain metastases (radiance by IVIS) [6]: Suppresses Tumor Growth
median survival ([6]; control 38 days, P<0.02): 52 days
transport of h3E10 di-scFv across Transwell filter BBB model [7]: crosses
